Tests used:
[1] = Additional study: grade 3 or greater treatment-emergent adverse events; type: in vivo, human
p4E-BP1 (T37/46) = experiment: Human peripheral blood mono-nucleocyte biomarker assay (Phosflow, Phase I trial); type: in vivo; conditions: all dosing regimens
Procedure: A BD Biosciences Phosflow assay was conducted using human peripheral blood cells. Whole blood was lysed and fixed using the provided BD Lyse/Fix buffer and permeabilized with BD Perm III buffer. Peripheral blood cells were isolated and stained using CD33 and CD20 as extracellular markers and p4E-BP1 (T37/46) as the intracellular biomarker. Cell type populations were identified as monocytes (CD33+), granulocytes (CD33 dim), lymphocytes (CD33−), B-cells (CD33−, CD20+) and T &NK cells (CD33−, CD20−) by FACS analysis. The median fluorescense intensity (MFI) of each cell type was analyzed along with the percentage of p4E-BP1 positive cells.
Pharmacodynamic (PD) endpoints were evaluated in surrogate (peripheral blood cells [PBCs], skin) and tumor tissues for the phosphorylation of TORC1-dependent markers (4EBP1/S6), and TORC2-dependent markers (AKT/PRAS40). 50 patients were treated in 3 intermittent dosing regimens; 21 in 6 cohorts ranging 7-40 mg QW, 20 in 5 cohorts ranging 6-20 mg QDx3d QW, and 9 in 3 cohorts ranging 7-13 mg QDxSd QW. […] The MTD for intermittent dosing was not reached. All adverse events (AEs) reported were reversible. The most common (≧20%, n=35) AEs considered possibly related to compound A reported in all 3 dosing regimens included nausea (51%), hyperglycemia (37%), mucosal inflammation (29%), rash (23%), asthenia (23%), vomiting (26%), and diarrhea (20%). […]

## CC(C)n1nc(-c2ccc3oc(N)nc3c2)c2c(N)ncnc21 [compound A]
[1]; QD Dosing (N = 29)
  Grade 3 or greater TEAE: Anaemia: 1 (3%)
  Grade 3 or greater TEAE: Aspartate aminotransferase increase: 0 (0%)
  Grade 3 or greater TEAE: Asthenia: 1 (3%)
  Grade 3 or greater TEAE: Blood creatinine increase: 0 (0%)
  Grade 3 or greater TEAE: Deep vein thrombosis: 0 (0%)
  Grade 3 or greater TEAE: Diarrhoea: 1 (3%)
  Grade 3 or greater TEAE: Disease progression: 0 (0%)
  Grade 3 or greater TEAE: Fatigue: 0 (0%)
  Grade 3 or greater TEAE: Gamma-glutamyltransferase increase: 0 (0%)
  Grade 3 or greater TEAE: Hyperglycaemia: 4 (14%)
  Grade 3 or greater TEAE: Hypokalaemia: 2 (7%)
  Grade 3 or greater TEAE: Hyponatraemia: 2 (7%)
  Grade 3 or greater TEAE: Hypophsphataemia: 0 (0%)
  Grade 3 or greater TEAE: Lymphopenia: 2 (7%)
  Grade 3 or greater TEAE: Mucosal Inflammation: 0 (0%)
  Grade 3 or greater TEAE: Muscular weakness: 0 (0%)
  Grade 3 or greater TEAE: Nausea: 0 (0%)
  Grade 3 or greater TEAE: Neutropenia: 0 (0%)
  Grade 3 or greater TEAE: Pruritus: 2 (7%)
  Grade 3 or greater TEAE: Rash: 7 (24%)
  Grade 3 or greater TEAE: Thrombocytopenia: 2 (7%)
  Grade 3 or greater TEAE: Vomiting: 0 (0%)
  Patients Reporting at least one Grade 3 or greater TEAE: 17 (59%)
[1]; QDx3d QW (N = 25)
  Grade 3 or greater TEAE: Anaemia: 2 (8%)
  Grade 3 or greater TEAE: Aspartate aminotransferase increase: 0 (0%)
  Grade 3 or greater TEAE: Asthenia: 1 (4%)
  Grade 3 or greater TEAE: Blood creatinine increase: 2 (8%)
  Grade 3 or greater TEAE: Deep vein thrombosis: 1 (4%)
  Grade 3 or greater TEAE: Diarrhoea: 1 (4%)
  Grade 3 or greater TEAE: Disease progression: 0 (0%)
  Grade 3 or greater TEAE: Fatigue: 0 (0%)
  Grade 3 or greater TEAE: Gamma-glutamyltransferase increase: 1 (4%)
  Grade 3 or greater TEAE: Hyperglycaemia: 4 (16%)
  Grade 3 or greater TEAE: Hypokalaemia: 0 (0%)
  Grade 3 or greater TEAE: Hyponatraemia: 0 (0%)
  Grade 3 or greater TEAE: Hypophsphataemia: 3 (12%)
  Grade 3 or greater TEAE: Lymphopenia: 2 (8%)
  Grade 3 or greater TEAE: Mucosal Inflammation: 4 (16%)
  Grade 3 or greater TEAE: Muscular weakness: 1 (4%)
  Grade 3 or greater TEAE: Nausea: 1 (4%)
  Grade 3 or greater TEAE: Neutropenia: 0 (0%)
  Grade 3 or greater TEAE: Pruritus: 1 (4%)
  Grade 3 or greater TEAE: Rash: 1 (4%)
  Grade 3 or greater TEAE: Thrombocytopenia: 0 (0%)
  Grade 3 or greater TEAE: Vomiting: 1 (4%)
  Patients Reporting at least one Grade 3 or greater TEAE: 18 (72%)
[1]; QDx5d QW (N = 15)
  Grade 3 or greater TEAE: Anaemia: 1 (7%)
  Grade 3 or greater TEAE: Aspartate aminotransferase increase: 1 (7%)
  Grade 3 or greater TEAE: Asthenia: 1 (7%)
  Grade 3 or greater TEAE: Blood creatinine increase: 0 (0%)
  Grade 3 or greater TEAE: Deep vein thrombosis: 0 (0%)
  Grade 3 or greater TEAE: Diarrhoea: 0 (0%)
  Grade 3 or greater TEAE: Disease progression: 0 (0%)
  Grade 3 or greater TEAE: Fatigue: 2 (13%)
  Grade 3 or greater TEAE: Gamma-glutamyltransferase increase: 1 (7%)
  Grade 3 or greater TEAE: Hyperglycaemia: 1 (7%)
  Grade 3 or greater TEAE: Hypokalaemia: 0 (0%)
  Grade 3 or greater TEAE: Hyponatraemia: 0 (0%)
  Grade 3 or greater TEAE: Hypophsphataemia: 2 (13%)
  Grade 3 or greater TEAE: Lymphopenia: 1 (7%)
  Grade 3 or greater TEAE: Mucosal Inflammation: 3 (20%)
  Grade 3 or greater TEAE: Muscular weakness: 0 (0%)
  Grade 3 or greater TEAE: Nausea: 1 (7%)
  Grade 3 or greater TEAE: Neutropenia: 1 (7%)
  Grade 3 or greater TEAE: Pruritus: 0 (0%)
  Grade 3 or greater TEAE: Rash: 1 (7%)
  Grade 3 or greater TEAE: Thrombocytopenia: 0 (0%)
  Grade 3 or greater TEAE: Vomiting: 1 (7%)
  Patients Reporting at least one Grade 3 or greater TEAE: 8 (53%)
[1]; QW Dosing (N = 22)
  Grade 3 or greater TEAE: Anaemia: 2 (9%)
  Grade 3 or greater TEAE: Aspartate aminotransferase increase: 1 (5%)
  Grade 3 or greater TEAE: Asthenia: 1 (5%)
  Grade 3 or greater TEAE: Blood creatinine increase: 0 (0%)
  Grade 3 or greater TEAE: Deep vein thrombosis: 1 (5%)
  Grade 3 or greater TEAE: Diarrhoea: 1 (5%)
  Grade 3 or greater TEAE: Disease progression: 2 (9%)
  Grade 3 or greater TEAE: Fatigue: 1 (5%)
  Grade 3 or greater TEAE: Gamma-glutamyltransferase increase: 1 (5%)
  Grade 3 or greater TEAE: Hyperglycaemia: 0 (0%)
  Grade 3 or greater TEAE: Hypokalaemia: 1 (5%)
  Grade 3 or greater TEAE: Hyponatraemia: 0 (0%)
  Grade 3 or greater TEAE: Hypophsphataemia: 0 (0%)
  Grade 3 or greater TEAE: Lymphopenia: 1 (5%)
  Grade 3 or greater TEAE: Mucosal Inflammation: 0 (0%)
  Grade 3 or greater TEAE: Muscular weakness: 1 (5%)
  Grade 3 or greater TEAE: Nausea: 0 (0%)
  Grade 3 or greater TEAE: Neutropenia: 1 (5%)
  Grade 3 or greater TEAE: Pruritus: 0 (0%)
  Grade 3 or greater TEAE: Rash: 0 (0%)
  Grade 3 or greater TEAE: Thrombocytopenia: 0 (0%)
  Grade 3 or greater TEAE: Vomiting: 1 (5%)
  Patients Reporting at least one Grade 3 or greater TEAE: 10 (45%)
[1]; Total (N = 91)
  Grade 3 or greater TEAE: Anaemia: 6 (7%)
  Grade 3 or greater TEAE: Aspartate aminotransferase increase: 2 (2%)
  Grade 3 or greater TEAE: Asthenia: 4 (4%)
  Grade 3 or greater TEAE: Blood creatinine increase: 2 (2%)
  Grade 3 or greater TEAE: Deep vein thrombosis: 2 (2%)
  Grade 3 or greater TEAE: Diarrhoea: 3 (3%)
  Grade 3 or greater TEAE: Disease progression: 2 (2%)
  Grade 3 or greater TEAE: Fatigue: 3 (3%)
  Grade 3 or greater TEAE: Gamma-glutamyltransferase increase: 3 (3%)
  Grade 3 or greater TEAE: Hyperglycaemia: 9 (10%)
  Grade 3 or greater TEAE: Hypokalaemia: 3 (3%)
  Grade 3 or greater TEAE: Hyponatraemia: 2 (2%)
  Grade 3 or greater TEAE: Hypophsphataemia: 5 (5%)
  Grade 3 or greater TEAE: Lymphopenia: 6 (7%)
  Grade 3 or greater TEAE: Mucosal Inflammation: 7 (8%)
  Grade 3 or greater TEAE: Muscular weakness: 2 (2%)
  Grade 3 or greater TEAE: Nausea: 2 (2%)
  Grade 3 or greater TEAE: Neutropenia: 2 (2%)
  Grade 3 or greater TEAE: Pruritus: 3 (3%)
  Grade 3 or greater TEAE: Rash: 9 (10%)
  Grade 3 or greater TEAE: Thrombocytopenia: 2 (2%)
  Grade 3 or greater TEAE: Vomiting: 3 (3%)
  Patients Reporting at least one Grade 3 or greater TEAE: 53 (58%)
p4E-BP1 (T37/46)
  p4EBP1 levels in PBC: Decreases in p4EBP1 levels were seen
